From patent US5475026A, “Agent for treating hepatic diseases” (Toray Industries, Inc., priority 1991, dated 1995)
Counter-ions that a name gives are not always drawn.

Assays:
[1] = increase in lipid peroxide level in the blood induced by carbon tetrachloride in SD rats (Example 3); assay type: in vivo, SD male rats; conditions: for Lipid Peroxides in serum / GPT level in serum / GOT level in serum: dose not given; for Lipid Peroxides in serum: control 7.10 ± 1.73, non-treated 3.40 ± 0.21; for GPT level in serum: control 3709 ± 406, non-treated 21 ± 2; for GOT level in serum: control 14689 ± 1577, non-treated 95 ± 5
Protocol: Using 7 week-old SD male rats, each group consisting of 6 rats, the effectiveness of beraprost by oral administration against the increase in the lipid peroxide level in the blood induced by carbon tetrachloride was tested. The sodium salt of beraprost was used as the test compound. 12.5% carbon tetrachloride solution in olive oil was intraperitoneally administered in a dose of 2 ml/kg to the rats which had been fasted for 24 hours. After the administration of the carbon tetrachloride solution, the rats were fasted for another 24 hours and then the levels of lipid peroxide, GOT and GPT in serum were measured. The test compound was administered one hour before (Test Group 1) or 6 hours after (Test Group 2) the administration of the carbon tetrachloride solution. As a control group, one group was treated in the same manner as described above except that the sodium salt of beraprost was not administered.

[2] = Acute Toxicity Test (Example 5); parameters: species or system rats; conditions: rat, in vivo, 14 days, parentheses: 95% reliable limit, Litchfield-Wilcoxon Method
Protocol: (§1) Acute toxicity test was carried out using rats.
(§2) *Litchfield-Wilcoxon Method (see J. Pharmacol. Expl. Therap. Vol. 96, p.
(§3) The numbers in parentheses indicate 95% reliable limit.

[3] = test system: rats; test: Acute Toxicity Test (Example 5); conditions: rat, in vivo
Protocol: as §1, §2, §3

[4] = hepatic disorder induced by D-galactosamine in SD rats (Example 2); assay type: in vivo, SD male rats; conditions: oral
Protocol: Using 7 week-old SD male rats, the effectiveness of beraprost by oral administration against the hepatic disorder induced by D-galactosamine was tested. As the test compound, the sodium salt of beraprost was used. The test compound was administered in a dose of 0.3 mg/kg per each time at one hour before and 6 hours after the administration of D-galactosamine. D-galactosamine was subcutaneously administered in a dose of 1 g/kg. Forty eight hours after the administration of D-galactosamine, the GOT and glutamic acid-pyruvic acid transaminase (hereinafter referred to as "GPT") levels in serum, and the content of triglyceride in the livers were measured.
As a control group, one group was treated in the same manner as described above except that sodium salt of beraprost was not administered.

[5] = disorder caused by liver ischemia-recirculation in SD rats (Example 4); assay type: in vivo, SD male rats; conditions: oral, 30 minutes before ischemia; for GPT level in serum: two hours after recirculation, control 624
Protocol: Using 8-10 week-old SD male rats, the effectiveness of beraprost by oral administration against the disorder caused by liver ischemia-recirculationwas tested. The sodium salt of beraprost was used as the test compound. The test compound was administered 30 minutes before the induction of liver ischemia. Liver ischemia was induced by ventrotomy under anesthesia and closing the hepatic artery in the outer left leaf and the portal vein with clips. One hour after the clipping, the clips were removed to reopen the vessels. Two hours after recirculation, the GPT level in serum was measured to evaluate the degree of disorder.
As a control group, one group was treated in the same manner as described above except that distilled water was administered in place of sodium salt of beraprost.

[6] = hepatic disorder induced by carbon tetrachloride in SD rats, serum GOT (Example 1); assay type: in vivo, Sprague-Dawley male rats; conditions: 0.3 mg/kg; for GOT level in serum: 24 h after
Protocol: Using 7 week-old Sprague-Dawley (hereinafter referred to as "SD") male rats, the effectiveness of beraprost against hepatic disorder induced by carbon tetrachloride was tested employing two administration routes, that is, oral and intraperitoneal administrations. Each group consisted of 6 rats. The test compound was the sodium salt of beraprost. The test compound was administered to the rats. which had been fasted for 24 hours, One hour after beraprost administration, 12.5% carbon tetrachloride solution in olive oil was administered in a dose of 2 ml/kg. The carbon tetrachloride solution was intraperitoneally administered to the rats to which the test compound was orally administered. The carbon tetrachloride solution was orally administered to the rats to which the test compound was intraperitoneally administered. After the administration of the carbon tetrachloride solution, the rats were fasted for 24 hours, and the glutamic acid-[…] transaminase (hereinafter referred to as "GOT") level in serum was measured. As a control group, one group was treated in the same manner as described above except that the sodium salt of beraprost was not administered. The results are shown in […]

[7] = oral, one hour before or 6 hours after carbon tetrachloride
[8] = 0.3 mg/kg twice, vs control group
[9] = Test Group 1: oral, one hour before carbon tetrachloride, 24 h after
[10] = Test Group 2: oral, 6 hours after carbon tetrachloride, measured 24 h after carbon tetrachloride

CC#CCC(C)[C@H](O)/C=C/[C@@H]1[C@H]2c3cccc(CCCC(=O)O)c3O[C@H]2C[C@H]1O (relative stereo) [beraprost, (±)-(1R*,2R*, 3aS*,8bS*)-2,3,3a,8b-tetrahydro-2-hydroxy-1-[(E)-(3S*)-3-hydroxy-4methyl-1-ocetene-6-inyl]-1H-cyclopenta[b]benzofuran-5-butyric acid]
decrease in GOT (in words) [1, 7]: significant decrease
decrease in GPT (in words) [1, 7]: significant decrease
decrease in lipid peroxide level in the blood (in words) [1, 7]: significant decrease
LD50 at 336 h ([2]; iv, female): 13 mg/kg
LD50 at 336 h ([2]; iv, male): 18 mg/kg
LD50 at 336 h ([2]; po, female): 12 mg/kg
LD50 at 336 h ([2]; po, male): 15 mg/kg
LD50 at 336 h ([2]; sc, subcutaneous, female): 7 mg/kg
LD50 at 336 h ([2]; sc, subcutaneous, male): 13 mg/kg
pathological symptoms [3]: slight to medium congestion in lung, slight to medium bleeding in stomach glands and slight small intestine catarrh
side effects [3]: side effects are observed only at very high dose
decrease in amount of triglycerides in the liver (in words) [4, 8]: significant decreases
decrease in serum GOT (in words) [4, 8]: significant decreases
decrease in serum GPT (in words) [4, 8]: significant decreases

CC#CCC(C)[C@H](O)/C=C/[C@@H]1[C@H]2c3cccc(CCCC(=O)O)c3O[C@H]2C[C@H]1O (relative stereo) [sodium salt of beraprost]
Lipid Peroxides in serum [1, 9]: 2.44 ± 0.34 µM
GPT level in serum [1, 9]: 1285 ± 344 unit/l
GOT level in serum [1, 9]: 4428 ± 1649 unit/l
Lipid Peroxides in serum [1, 10]: 2.82 ± 0.52 µM
GPT level in serum [1, 10]: 1713 ± 258 unit/l
GOT level in serum [1, 10]: 7672 ± 1834 unit/l
GPT level in serum ([5]; 0.03 mg/kg): 617 unit/l
GPT level in serum ([5]; 0.1 mg/kg): 540 unit/l
GPT level in serum ([5]; 0.3 mg/kg): 427 unit/l
decrease in GPT level in serum (in words) ([5]; 0.03-0.3 mg/kg): a decrease in GPT level in serum was observed
GOT level in serum ([6]; intraperitoneal, one hour before carbon tetrachloride (oral), control 11943 ± 1216): 1889 ± 506 unit/l
decrease in GOT (in words) ([6]; oral and intraperitoneal, vs control): significant decrease in GOT was observed
GOT level in serum ([6]; oral, one hour before carbon tetrachloride (intraperitoneal), control 15647 ± 1588): 3820 ± 642 unit/l
Triglyceride content in the liver ([4]; 0.3 mg/kg one hour before and 6 hours after D-galactosamine, 48 h, control 42.4 ± 6.0, non-treated 14.1 ± 0.6): 12.4 ± 0.7 mg/g tissue
GPT level in serum ([4]; 0.3 mg/kg one hour before and 6 hours after D-galactosamine, 48 h, control 2552 ± 375, non-treated 79 ± 5): 1356 ± 187 unit/l
GOT level in serum ([4]; 0.3 mg/kg one hour before and 6 hours after D-galactosamine, 48 h, control 5641 ± 858, non-treated 154 ± 7): 3506 ± 377 unit/l
